{
  "source": "patent US10683278B2",
  "about": "(JINAN UNIVERSITY, priority 2015, dated 2020)",
  "data": [
    {"molecular_target": "T1, AXL kinase (Homo sapiens, UniProt P30530)", "T1 construct": "purchased Invitrogen PV4803", "T1 sequence (P30530 26-894)": "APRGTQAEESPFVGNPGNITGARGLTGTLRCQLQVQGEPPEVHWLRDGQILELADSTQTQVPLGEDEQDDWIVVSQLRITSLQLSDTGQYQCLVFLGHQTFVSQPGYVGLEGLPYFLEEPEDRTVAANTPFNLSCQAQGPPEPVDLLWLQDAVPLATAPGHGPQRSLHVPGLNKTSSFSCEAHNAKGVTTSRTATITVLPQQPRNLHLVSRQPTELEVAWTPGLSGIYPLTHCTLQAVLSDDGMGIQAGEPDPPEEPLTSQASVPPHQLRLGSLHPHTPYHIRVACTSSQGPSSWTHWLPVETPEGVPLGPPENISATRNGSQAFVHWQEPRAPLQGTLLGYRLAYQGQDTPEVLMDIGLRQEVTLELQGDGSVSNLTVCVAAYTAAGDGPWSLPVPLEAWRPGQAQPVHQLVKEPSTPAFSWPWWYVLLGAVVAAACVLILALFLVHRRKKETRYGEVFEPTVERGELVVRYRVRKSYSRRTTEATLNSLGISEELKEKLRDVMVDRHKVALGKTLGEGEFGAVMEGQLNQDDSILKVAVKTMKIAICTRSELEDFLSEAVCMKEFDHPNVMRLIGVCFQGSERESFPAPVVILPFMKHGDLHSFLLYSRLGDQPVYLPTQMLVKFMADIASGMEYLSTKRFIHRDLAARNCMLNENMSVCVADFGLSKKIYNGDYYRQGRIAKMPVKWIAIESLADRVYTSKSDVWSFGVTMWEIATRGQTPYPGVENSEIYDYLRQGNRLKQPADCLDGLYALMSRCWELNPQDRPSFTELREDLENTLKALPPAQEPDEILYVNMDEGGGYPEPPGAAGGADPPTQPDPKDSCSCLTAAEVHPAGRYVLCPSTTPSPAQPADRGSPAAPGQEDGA", "assay": "IC50 test on AXL kinase (Z′-LYTE FRET kinase activity detection)", "format": "biochemical", "conditions": "Z′-LYTE FRET peptide assay, 1 h reaction", "source_text": "Kinase activity detection: The activity of compounds on kinases was detected by a secondary reaction which used the Z′-LYTE™ technique (a detection using fluorescence, enzyme coupling, and based on differences in susceptibility of phosphorylated and non-phosphorylated polypeptides to proteolytic cleavage), followed the fluorescence resonance energy transfer (FRET) principle, and used Z′-LYTE™ FRET peptide substrates (Invitrogen, Z′-LYTE™ KINASE ASSAY KIT—TYR 2 PEPTIDE, PV3191). AXL kinase (invitrogen, PV4803) was diluted stepwise, FRET peptide was then added, followed by ATP, then by compounds at different concentrations, reacted for 1 h, site-specific proteases were then added to recognize and cleave non-phosphorylated FRET peptides, reacted for 1 h, and […] at 445 nm and 520 nm were detected using excitation wavelength of 400 nm.", "units": {"IC50": "nM"}, "values": [
      {"molecule": "CCc1ccc2c(c1)c(=O)c(C(=O)Nc1ccc(Oc3ccnc(NCc4ccccc4)c3)c(F)c1)c(C)n2C", "IC50": "> 10000"},
      {"molecule": "6-ethyl-N-(3-fluoro-4-(3-phenylfuro[2,3-b]pyridin-4-yloxy)phenyl)-1,2-dimethyl-4-oxo-1,4-dihydroquinoline-3-carboxamide [GDL5000039]", "IC50": 192},
      {"molecule": "CCc1ccc2c(c1)c(=O)c(C(=O)Nc1ccc(Oc3ccnc(C(N)=O)c3)c(F)c1)c(C)n2C", "note": "[GDL5000045, N-(4-(2-carbamoylpyridin-4-yloxy)-3-fluorophenyl)-6-ethyl-1,2-dimethyl-4-oxo-1,4-dihydroquinoline-3-carboxamide]", "IC50": 4380},
      {"molecule": "CCc1ccc2c(c1)c(=O)c(C(=O)Nc1ccc(Oc3ccnc(N)c3)c(F)c1)c(C)n2C", "note": "[GDL5000050, N-(4-(2-aminopyridin-4-yloxy)-3-fluorophenyl)-6-ethyl-1,2-dimethyl-4-oxo-1,4-dihydroquinoline-3-carboxamide]", "IC50": 888},
      {"molecule": "CC1CCc2c(N3CCC(O)CC3)c(F)cc3c(=O)c(C(=O)Nc4ccc(Oc5ncnc6[nH]cc(-c7ccccc7)c56)c(F)c4)cn1c23", "note": "(stereo not drawn) [GDL5000076, 9-fluoro-N-(3-fluoro-4-((5-phenyl-7H-pyrrolo[2,3-d]pyrimidin-4-yl)oxy)phenyl)-8-(4-hydroxypiperidin-1-yl)-5-methyl-1-oxo-1,5,6,7-tetrahydropyrido[3,2,1-ij]quinoline-2-carboxamide]", "IC50": 627},
      {"molecule": "COc1cc2ncnc(Oc3ccc(NC(=O)c4c5n(c6cc(N7CCN(Cc8oc(=O)oc8C)CC7)c(F)cc6c4=O)C(C)S5)cc3F)c2cc1OC", "note": "(stereo not drawn) [GDL5000082, N-(4-((6,7-dimethoxyquinazolin-4-yl)oxy)-3-fluorophenyl)-6-fluoro-1-methyl-7-(4-((5-methyl-2-oxo-1,3-dioxol-4-yl)methyl)piperazin-1-yl)-4-oxo-1,4-dihydro-[1,3]thiazeto[3,2-a]quinoline-3-carboxamide]", "IC50": 720},
      {"molecule": "Cc1ccc2c(c1)c(=O)c(C(=O)Nc1ccc(Oc3ncnc4[nH]cc(-c5ccccc5)c34)c(F)c1)c(C)n2-c1ccccc1", "note": "[GDL5000083, N-(3-fluoro-4-((5-phenyl-7H-pyrrolo[2,3-d]pyrimidine-4-yl)oxy)phenyl)-2,6-dimethyl-4-oxo-1-phenyl-1,4-hydroquinoline-3-carboxamide]", "IC50": 618},
      {"molecule": "CCN1CCN(c2cc3c(cc2F)c(=O)c(C(=O)Nc2ccc(Oc4ncnc5cc(OC)c(OC)cc45)c(F)c2)cn3C2CC2)CC1", "note": "[GDL5000093, 1-cyclopropyl-N-(4-(6,7-dimethoxyquinazolin-4-yloxy)-3-fluorophenyl)-7-(4-ethylpiperazin-1-yl)-6-fluoro-4-oxo-1,4-dihydroquinoline-3-carboxamide]", "IC50": 277},
      {"molecule": "COc1cc2ncnc(Oc3ccc(NC(=O)c4cn(-c5ccc(F)cc5F)c5nc(N6CCC(N)C6)c(F)cc5c4=O)cc3F)c2cc1OC", "note": "(stereo not drawn) [GDL5000101, 7-(3-aminopyrrolidin-1-yl)-1-(2,4-difluorophenyl)-N-(4-(6,7-dimethoxyquinazolin-4-yloxy)-3-fluorophenyl)-6-fluoro-4-oxo-1,4-dihydro-1,8-naphthyridine-3-carboxamide]", "IC50": 81},
      {"molecule": "CCn1cc(C(=O)Nc2ccc(Oc3ncnc4cc(OC)c(OC)cc34)c(F)c2)c(=O)c2cc(F)c(N3CCNCC3)nc21", "note": "[GDL5000102, N-(4-((6,7-dimethoxyquinazolin-4-yl)oxy)-3-fluorophenyl)-1-ethyl-6-fluoro-4-oxo-7-(piperazin-1-yl)-1,4-dihydro-1,8-naphthyridine-3-carboxamide]", "IC50": 64},
      {"molecule": "COc1cc2ncnc(Oc3ccc(NC(=O)c4cn5c6c(c(N7CCN(C)CC7)c(F)cc6c4=O)OC[C@@H]5C)cc3F)c2cc1OC", "note": "[GDL5000111, (S)—N-(4-((6,7-dimethoxyquinazolin-4-yl)oxy)-3-fluorophenyl)-9-fluoro-3-methyl-10-(4-methylpiperazin-1-yl)-7-oxo-3,7-dihydro-2H-[1,4]oxazino[2,3,4-ij]quinoline-6-carboxamide]", "IC50": 1080},
      {"molecule": "Cc1c(C(=O)Nc2ccc(Oc3ccnc4[nH]nc(-c5ccccc5)c34)c(F)c2)c(=O)c2cc(Cl)ccc2n1C", "note": "[TL50025, 6-chloro-N-(3-fluoro-4-((3-phenyl-1H-pyrazolo[3,4-b]pyridin-4-yl)oxy)phenyl)-1,2-dimethyl-4-oxo-1,4-dihydroquinoline-3-carboxamide]", "IC50": 569},
      {"molecule": "Cc1c(C(=O)Nc2ccc(Oc3ncnc4[nH]ccc34)c(F)c2)c(=O)c2cc(Cl)ccc2n1C", "note": "[TL50046, N-(4-((7H-pyrrolo[2,3-d]pyrimidin-4-yl)oxy)-3-fluorophenyl)-6-chloro-1,2-dimethyl-4-oxo-1,4-dihydroquinoline-3-carboxamide]", "IC50": "> 10000"},
      {"molecule": "Cc1c(C(=O)Nc2ccc(Oc3ncnc4[nH]cc(-c5ccccc5)c34)c(F)c2)c(=O)c2cc(Cl)ccc2n1C", "note": "[TL50053, 6-chloro-N-(3-fluoro-4-((5-phenyl-7H-pyrrolo[2,3-d]pyrimidin-4-yl)oxy)phenyl)-1,2-dimethyl-4-oxo-1,4-dihydroquinoline-3-carboxamide]", "IC50": 1890},
      {"molecule": "Cc1c(C(=O)Nc2ccc(Oc3ncnc4[nH]cc(-c5ccccc5)c34)c(F)c2)c(=O)c2ccccc2n1C", "note": "[TL50054, N-(3-fluoro-4-((5-phenyl-7H-pyrrolo[2,3-d]pyrimidin-4-yl)oxy)phenyl)-1,2-dimethyl-4-oxo-1,4-dihydroquinoline-3-carboxamide]", "IC50": "> 10000"},
      {"molecule": "Cc1c(C(=O)Nc2ccc(Oc3ncnc4[nH]cc(-c5ccccc5)c34)c(F)c2)c(=O)c2ccc(Cl)cc2n1C", "note": "[TL50080, 7-chloro-N-(3-fluoro-4-((5-phenyl-7H-pyrrolo[2,3-d]pyrimidin-4-yl)oxy)phenyl)-1,2-dimethyl-4-oxo-1,4-dihydroquinoline-3-carboxamide]", "IC50": "> 10000"},
      {"molecule": "Cc1c(C(=O)Nc2ccc(Oc3ncnc4[nH]cc(-c5ccccc5)c34)c(F)c2)c(=O)c2c(Cl)cccc2n1C", "note": "[TL50081, 5-chloro-N-(3-fluoro-4-((5-phenyl-7H-pyrrolo[2,3-d]pyrimidin-4-yl)oxy)phenyl)-1,2-dimethyl-4-oxo-1,4-dihydroquinoline-3-carboxamide]", "IC50": "> 10000"},
      {"molecule": "Cc1c(C(=O)Nc2ccc(Oc3ncnc4[nH]cc(-c5ccccc5)c34)c(F)c2)c(=O)c2ccc(C(F)(F)F)cc2n1C", "note": "[TL50086, N-(3-fluoro-4-(5-phenyl-7H-pyrrolo[2,3-d]pyrimidin-4-yloxy)phenyl)-1,2-dimethyl-4-oxo-7-(trifluoromethyl)-1,4-dihydroquinoline-3-carboxamide]", "IC50": "> 10000"},
      {"molecule": "Cc1c(C(=O)Nc2ccc(Oc3ccnc4[nH]ccc34)c(F)c2)c(=O)c2cc(Cl)ccc2n1C", "note": "[TL50090, N-(4-((1H-pyrrolo[2,3-b]pyridin-4-yl)oxy)-3-fluorophenyl)-6-chloro-1,2-dimethyl-4-oxo-1,4-dihydroquinoline-3-carboxamide]", "IC50": 2630},
      {"molecule": "Cc1ccc2c(c1)c(=O)c(C(=O)Nc1ccc(Oc3ncnc4[nH]cc(-c5ccccc5)c34)c(F)c1)c(C)n2C", "note": "[TL50115, N-(3-fluoro-4-(5-phenyl-7H-pyrrolo[2,3-d]pyrimidin-4-yloxy)phenyl)-1,2,6-trimethyl-4-oxo-1,4-dihydroquinoline-3-carboxamide]", "IC50": 102},
      {"molecule": "Cc1c(C(=O)Nc2ccc(Oc3ccnc4[nH]cc(-c5ccccc5)c34)c(F)c2)c(=O)c2cc(Cl)ccc2n1C", "note": "[TL50128, 6-chloro-N-(3-fluoro-4-((3-phenyl-1H-pyrrolo[2,3-b]pyridin-4-yl)oxy)phenyl)-1,2-dimethyl-4-oxo-1,4-dihydroquinoline-3-carboxamide]", "IC50": 211},
      {"molecule": "Cc1c(C(=O)Nc2ccc(Oc3ncnc4[nH]cc(-c5ccccc5)c34)c(F)c2)c(=O)c2cc(Br)ccc2n1C", "note": "[TL50133, 6-bromo-N-(3-fluoro-4-((5-phenyl-7H-pyrrolo[2,3-d]pyrimidin-4-yl)oxy)phenyl)-1,2-dimethyl-4-oxo-1,4-dihydroquinoline-3-carboxamide]", "IC50": 3120},
      {"molecule": "Cc1ccc2c(c1)c(=O)c(C(=O)Nc1ccc(Oc3ncnc4c3c(-c3ccccc3)cn4C)c(F)c1)c(C)n2C", "note": "[TL50134, N-(3-fluoro-4-(7-methyl-5-phenyl-7H-pyrrolo[2,3-d]pyrimidin-4-yloxy)phenyl)-1,2,6-trimethyl-4-oxo-1,4-dihydroquinoline-3-carboxamide]", "IC50": "> 10000"},
      {"molecule": "Cc1c(C(=O)Nc2ccc(Oc3ncnc4[nH]cc(-c5ccccc5)c34)c(F)c2)c(=O)c2cc(C3CC3)ccc2n1C", "note": "[TL50148, 6-cyclopropyl-N-(3-fluoro-4-((5-phenyl-7H-pyrrolo[2,3-d]pyrimidin-4-yl)oxy)phenyl)-1,2-dimethyl-4-oxo-1,4-dihydroquinoline-3-carboxamide]", "IC50": 227}
    ]}
  ]
}
